Data on 7 molecules can be found in ChEMBL document CHEMBL4834398, “Synthesis of Yakuchinone B-Inspired Inhibitors against Islet Amyloid Polypeptide Aggregation” (J Nat Prod, 2021).

Each structure is given as a SMILES string. pEC50, pIC50: −log10 of the molar value. Activity calls are given as the source filed them. The rule behind the calls is not given here. A value given as a limit tells only on which side of the number the result lay.

Assay [1] deals with T1, Islet amyloid polypeptide (Homo sapiens, UniProt P10997).
T1 sequence (P10997 whole entry): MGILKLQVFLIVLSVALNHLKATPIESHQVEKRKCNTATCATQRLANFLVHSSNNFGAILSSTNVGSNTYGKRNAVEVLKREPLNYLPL
In words: Inhibition of islet amyloid polypeptide (unknown origin) aggregation after 24 hrs by thioflavin T based fluorescence assay.

The subject of assay [2] is BRIN-BD11. In words: Protective activity against IAPP-induced toxicity in rat […] cells assessed as cell viability at 10 uM after 72 hrs by MTT assay. It counts as functional, cell-based.
The subject of assay [3] is BRIN-BD11. In words: Protective activity against IAPP-induced toxicity in rat […] cells assessed as cell viability at 0.02 to 0.63 uM after 72 hrs by MTT assay. In kind it is functional, cell-based. The settings on record: dose 0.02-0.63 µM.
The nature of assay [4]: Protective activity against IAPP-induced toxicity in rat BRIN-B11 cells assessed as cell viability after 72 hrs by MTT assay. The settings on record: BRIN-BD11, 72 h.

With `CC(=O)/C=C/c1ccc(O)c(O)c1`, the pIC50 in assay [1] was 5.43.

In the case of `CCC(=O)/C=C/c1cccc(O)c1O`, in the assay on BRIN-BD11 [2], the outcome was inactive. In the case of `CCCC(=O)/C=C/c1cccc(O)c1O`, the outcome in the assay on BRIN-BD11 [3] was Active. In assay [4], the negative logarithm of the EC50 (pEC50) was 7.00.

As for `CC(=O)/C=C/c1cccc(O)c1O`, the outcome in the assay on BRIN-BD11 [2] was inactive. For `CCCCC(=O)/C=C/c1cccc(O)c1O`, in the assay on BRIN-BD11 [3], the outcome was Active. The pEC50 in assay [4] is 6.70. The molecule `CC(=O)CCc1ccc(O)c(O)c1` showed a pIC50 in assay [1] of under 5.00.

`O=c1c(O)c(-c2ccc(O)cc2O)oc2cc(O)cc(O)c12` [MORIN]: in assay [4], the pEC50 was 6.00. Moreover, the negative-log IC50 (pIC50) in assay [1] was 5.11.
